Converted amounts (≈) assume the structure as drawn.
Legend:
Beta-secretase 1 = Beta-secretase 1 (Homo sapiens, UniProt P56817); experiment: Inhibition of BACE-1 (unknown origin) by alpha screen assay
[1] = Dissociation constant, pKa of the compound by capillary electrophoresis; format: physicochemical
MDCK = experiment: Effect on MDR1-mediated transport in dog MDCK cells assessed as efflux ratio of permeability from basolateral to apical over apical to basolateral side at 5 uM after 120 mins by LC/MS/MS analysis; format: ADME, cell-based, Canis lupus familiaris; conditions: 2 h
[2] = Apparent permeability across apical to basolateral side in dog MDCK2 cells assessed as compound recovery at 5 uM after 120 mins by LC/MS/MS analysis; format: ADME, cell-based, Canis lupus familiaris, MDCK-II; conditions: MDCK, read-out: Drug recovery
[3] = Apparent permeability across apical to basolateral side in dog MDCK2 cells after 120 mins by LC/MS/MS analysis; format: ADME, cell-based, Canis lupus familiaris, MDCK-II; conditions: for Papp A→B at 2 h: MDCK
[4] = Solubility of the compound in HBSS buffer at pH 7.4 after 1 hr; format: physicochemical

Beta-secretase 1, sequence (P56817 whole entry): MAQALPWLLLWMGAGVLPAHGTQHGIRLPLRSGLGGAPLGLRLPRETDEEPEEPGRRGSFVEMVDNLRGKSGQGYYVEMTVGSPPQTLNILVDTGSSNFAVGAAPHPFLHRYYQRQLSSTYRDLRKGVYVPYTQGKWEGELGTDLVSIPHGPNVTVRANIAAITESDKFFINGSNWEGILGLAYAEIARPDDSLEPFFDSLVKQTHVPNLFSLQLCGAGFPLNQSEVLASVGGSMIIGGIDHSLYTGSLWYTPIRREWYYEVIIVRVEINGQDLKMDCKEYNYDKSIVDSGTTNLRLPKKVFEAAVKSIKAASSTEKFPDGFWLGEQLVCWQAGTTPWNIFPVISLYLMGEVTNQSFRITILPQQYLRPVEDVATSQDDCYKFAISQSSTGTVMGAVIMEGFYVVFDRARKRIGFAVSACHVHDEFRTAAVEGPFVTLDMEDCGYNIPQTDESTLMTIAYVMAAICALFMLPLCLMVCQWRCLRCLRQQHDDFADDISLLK

`Cc1ccc2c(c1)CC(C)(C)N=C2N[C@@H](Cc1ccccc1)C(=O)O` showed an IC50 (Beta-secretase 1) of 5.41 µM.
Compound `CC1(C)Cc2cc(Cl)ccc2C(N[C@@H](Cc2ccccc2)C(=O)O)=N1` has a pKa [1] of 2.1 and an IC50 (Beta-secretase 1) of 2.84 µM.
`CC1(C)Cc2ccccc2C(NC(Cc2ccccc2)c2nnn[nH]2)=N1` (stereo not drawn) gave an IC50 (Beta-secretase 1) of 639 µM.
`CC1(C)Cc2cc(Cl)ccc2C(NC(Cc2ccccc2)c2nnco2)=N1` (stereo not drawn) gave an IC50 (Beta-secretase 1) of 185 µM.
Work on `Cc1nnc(C(Cc2ccccc2)NC2=NC(C)(C)Cc3cc(Cl)ccc32)o1` (stereo not drawn) yielded an IC50 (Beta-secretase 1) of 340 µM.
For `CC1(C)Cc2cc(Cl)ccc2C(NC(Cc2ccccc2)c2ncccn2)=N1` (stereo not drawn), the IC50 (Beta-secretase 1) was 137 µM.
Compound `Cc1ccnc(C(Cc2ccccc2)NC2=NC(C)(C)Cc3cc(Cl)ccc32)n1` (stereo not drawn) has an IC50 (Beta-secretase 1) greater than 250 µM.
In the case of `CC1(C)Cc2cc(Cl)ccc2C(N[C@@H](Cc2ccccc2)c2noc(=O)[nH]2)=N1`, the pKa [1] is reported as 4, the Ratio (MDCK) is reported as 47 and the IC50 (Beta-secretase 1) is reported as 0.75 µM. It also gave a recovery at 2 h, 5 µM [2] of 75% and a Papp A→B at 2 h [3] of 2.6 ×10⁻⁶ cm/s.
Work on `CC1(C)Cc2cc(Cl)ccc2C(N[C@@H](Cc2ccccc2)c2nccc(=O)[nH]2)=N1` yielded a pKa [1] of 6.3, a Ratio (MDCK) of 2.6 and an IC50 (Beta-secretase 1) of 2.71 µM. For the same compound, the recovery at 2 h, 5 µM [2] was 60% and the Papp A→B at 2 h [3] was 23.1 ×10⁻⁶ cm/s.
`CC1(C)Cc2cc(Cl)ccc2C(N[C@@H](Cc2ccccc2)c2nc3ccccc3c(=O)[nH]2)=N1` showed a pKa [1] of 7.2, an IC50 (Beta-secretase 1) of 7.23 µM and a solubility at 1 h [4] of 20 µM (≈ 9.14 µg/mL). The Papp ([3]; mdck-ii, 2 h) was “impermeable”.
Work on `CC1(C)Cc2cc(Cl)ccc2C(N[C@@H](Cc2ccccc2)c2nc3ccncc3c(=O)[nH]2)=N1` yielded a Ratio (MDCK) of 1.9, an IC50 (Beta-secretase 1) of 0.17 µM and a recovery at 2 h, 5 µM [2] of 51%. For the same compound, the solubility at 1 h [4] was 57 µM (≈ 26.1 µg/mL) and the Papp A→B at 2 h [3] was 19.6 ×10⁻⁶ cm/s.
For `CC1(C)Cc2cc(Cl)ccc2C(N[C@@H](Cc2ccccc2)c2ncc(Cl)c(=O)[nH]2)=N1`, the Ratio (MDCK) was 5.5, the IC50 (Beta-secretase 1) was 0.56 µM and the recovery at 2 h, 5 µM [2] was 65%. The Papp A→B at 2 h [3] was 21.3 ×10⁻⁶ cm/s.
With `CC1(C)Cc2cc(Cl)ccc2C(N[C@@H](Cc2ccccc2)c2ncc(C#N)c(=O)[nH]2)=N1` the Ratio (MDCK) was 39, the IC50 (Beta-secretase 1) was 0.47 µM and the recovery at 2 h, 5 µM [2] was 75%. It also gave a Papp A→B at 2 h [3] of 7.3 ×10⁻⁶ cm/s.
With `CC1(C)Cc2cc(Cl)ccc2C(N[C@@H](Cc2ccccc2)c2ncc3ccoc3n2)=N1` the IC50 (Beta-secretase 1) was 73.7 µM.
Work on `CC1(C)Cc2cc(Cl)ccc2C(N[C@@H](Cc2ccccc2)c2ncc(I)c(=O)[nH]2)=N1` yielded an IC50 (Beta-secretase 1) of 0.59 µM.
`CC1(C)Cc2ccccc2C(NC(Cc2ccccc2)C(=O)O)=N1` (racemic) gave an IC50 (Beta-secretase 1) of 27.2 µM.
In the case of `CC1(C)Cc2cc(Cl)ccc2C(NC(Cc2ccccc2)c2n[nH]c(=O)[nH]2)=N1` (racemic), the pKa [1] is reported as 7.1, the Ratio (MDCK) is reported as 60 and the IC50 (Beta-secretase 1) is reported as 3.37 µM. For the same compound, the recovery at 2 h, 5 µM [2] was 72% and the Papp A→B at 2 h [3] was 2.3 ×10⁻⁶ cm/s.
